Values joined by “and” are separate entries in the source; they are usually repeats but may differ in a detail not shown here. Equal values may be shown once.
Details: Capillary rise

CC(C)C [2-methylpropane]
Details | surface tension liquid-gas
255.02 K | 14.85 mN/m
256.94 K | 14.69 mN/m
258.83 K | 14.36 mN/m and 14.37 mN/m
261.09 K | 14.17 mN/m
262.95 K | 14.02 mN/m and 14.03 mN/m
264.86 K | 13.7 mN/m and 13.72 mN/m
267.09 K | 13.46 mN/m and 13.44 mN/m
268.86 K | 13.16 mN/m
270.9 K | 12.95 mN/m and 12.97 mN/m
273.38 K | 12.68 mN/m
275.39 K | 12.57 mN/m and 12.6 mN/m
277.16 K | 12.29 mN/m
279.34 K | 12.06 mN/m
281.3 K | 11.77 mN/m and 11.75 mN/m
283.29 K | 11.62 mN/m
285.43 K | 11.28 mN/m
287.5 K | 11.14 mN/m and 11.13 mN/m
289.31 K | 10.86 mN/m
291.65 K | 10.74 mN/m and 10.72 mN/m
293.66 K | 10.5 mN/m
295.75 K | 10.28 mN/m
297.83 K | 10.01 mN/m and 10.05 mN/m
299.48 K | 9.84 mN/m
301.43 K | 9.57 mN/m and 9.6 mN/m
303.91 K | 9.37 mN/m and 9.38 mN/m
305.75 K | 9.14 mN/m
307.41 K | 8.98 mN/m
309.49 K | 8.75 mN/m and 8.77 mN/m
311.81 K | 8.52 mN/m and 8.51 mN/m
313.49 K | 8.29 mN/m and 8.31 mN/m
315.82 K | 8.05 mN/m and 8.09 mN/m
317.75 K | 7.9 mN/m and 7.91 mN/m
319.32 K | 7.69 mN/m and 7.68 mN/m
321.96 K | 7.45 mN/m and 7.46 mN/m
323.71 K | 7.25 mN/m and 7.22 mN/m
325.37 K | 7.02 mN/m and 7.04 mN/m
327.8 K | 6.79 mN/m and 6.81 mN/m
329.49 K | 6.71 mN/m
331.68 K | 6.42 mN/m
333.28 K | 6.29 mN/m

CCC [propane]
Details | surface tension liquid-gas
253.08 K | 12.98 mN/m
254.8 K | 12.7 mN/m and 12.69 mN/m
256.89 K | 12.38 mN/m
258.68 K | 12.21 mN/m and 12.2 mN/m
260.71 K | 11.94 mN/m and 11.97 mN/m
262.7 K | 11.56 mN/m and 11.58 mN/m
265.09 K | 11.31 mN/m and 11.32 mN/m
267.09 K | 11.06 mN/m and 11.05 mN/m
268.88 K | 10.81 mN/m
270.72 K | 10.52 mN/m and 10.53 mN/m
273.2 K | 10.17 mN/m
275.38 K | 9.97 mN/m
277.43 K | 9.71 mN/m
279.39 K | 9.4 mN/m
281.48 K | 9.14 mN/m and 9.15 mN/m
289.27 K | 8.14 mN/m and 8.15 mN/m
293.85 K | 7.49 mN/m
295.73 K | 7.23 mN/m
297.4 K | 7.04 mN/m
299.41 K | 6.85 mN/m and 6.87 mN/m
301.45 K | 6.62 mN/m
303.54 K | 6.33 mN/m and 6.34 mN/m
305.17 K | 6.21 mN/m and 6.22 mN/m
308.01 K | 5.86 mN/m
310.73 K | 5.55 mN/m
314.39 K | 5.06 mN/m
315.71 K | 4.85 mN/m and 4.84 mN/m
317.64 K | 4.62 mN/m and 4.63 mN/m
319.43 K | 4.42 mN/m
321.41 K | 4.25 mN/m and 4.26 mN/m
323.34 K | 4.01 mN/m and 4.02 mN/m
325.32 K | 3.8 mN/m and 3.81 mN/m
327.4 K | 3.6 mN/m and 3.62 mN/m
329.79 K | 3.32 mN/m and 3.31 mN/m
331.79 K | 3.12 mN/m and 3.13 mN/m
333.3 K | 2.94 mN/m and 2.95 mN/m

Source: the NIST ThermoML archive (doi:10.1021/je034093m)
